In patent US7348153B2, “Method for identifying and designing immunogenic peptides” (Health Research, Inc., priority 2004, dated 2008):
Marks after values point to notes of the source that are not given here.

Legend:
Format in all cases: cell-based, human
[1] = test system: PBMCs from melanoma patients; assay: PBMC proliferation assay (tritiated thymidine incorporation); conditions: for stimulation index: both peptides
Protocol: For proliferation assays, PBMCs were cultured in tetra-triplicate in 96-well flat-bottomed microtiter plates (Costar Corp., Cambridge, Mass.) at the concentration of 2×10^5 cells/well in 100 μl of complete RPMI 1640 containing L-glutamine and 10% fetal bovine serum. […] PBMCs were cultured for 6 days at 37° C. in a 5% CO2 atmosphere before addition of tritiated thymidine at a concentration of 1 μCi/well. Results are expressed as cpm of tritiated thymidine incorporated and as a stimulation index (Hogan et al. J Immunol 1989; 142:2097-104). The latter is the average cpm of lymphocytes cultured with peptide divided by the average cpm of lymphocytes cultured without peptide. […] After 5 additional days of culture at 37° C. cells were washed, replated, and restimulated at a 1:1 stimulator to responder ratio with irradiated (30 Gy) autologous PBMC stimulators and peptides at concentrations of 5, 25, and 50 μg/ml. IL-2 was added after 96 h, and cells were cultured for an additional 5 days at 37° C., after which they were restimulated for an additional 10 days at 37° C. Lymphocytes stimulated over three cycles were collected and used as effectors in a cytotoxicity (CTL) assay.

[2] = test system: PBMCs from melanoma patients; assay: IFN-γ and IL-10 release by peptide-stimulated PBMC (double sandwich ELISA); conditions: for IL-10 levels after restimulation / IFN-γ levels: HLA-A2+ patient 6, 2° STIM, 25 μg/ml; for IFN-γ levels: comparison between peptides (P>0.05); for IFN-γ:IL-10 ratio: 2° STIM; for average IFN-γ levels after 2° STIM: peptides 25 μg/ml
Protocol: Interaction of T cells with Ag can induce a few cycles of division resulting in Ag-primed uncommitted T cells or can induce T cells to differentiate and gain effector function. The effector function is best characterized by the ability of Ag-stimulated T cells to secrete Th1 cytokines and to mediate lysis of specific targets. To determine whether T cells from immunized patients acquired cytokine effector function, IFN-γ and IL-10 were measured in supernatants harvested from PBMC cultures stimulated with I-100 and I-102 peptides. To measure cytokine release, supernatants were collected at 24, 48, and 72 h after primary and secondary stimulation with 5, 25, and 50 μg/ml of peptides and stored frozen at −20° C. IFN-γ and IL-10 levels were measured by a double sandwich ELISA using the corresponding kits supplied by Biosource International. Assays were calibrated with human recombinant IFN-γ and IL-10 to detect each cytokine in a range of 15-1000 pg/ml.
IL-10 was assayed instead of IL-4 as a representative Th2 cytokine, because the PBMCs used as responders were from patients with melanoma. Therefore, they might contain regulatory cells. Patient 6 had supernatants saved from two separate experiments. […] Because after priming, all of the stimulated PBMCs were expanded in IL-2, we determined the effect of culturing PBMCs in IL-2 on IFN-γ induction.

[3] = test system: T2 cells pulsed with peptide; assay: 51Cr release CTL assay against peptide-pulsed T2 cells; conditions: for lysis of T2-I-100 by peptide-stimulated CTL: immunized HLA-A2+ patients 1 and 6, E:T 30:1, 4 hour 51Cr release; for lysis of T2 cells pulsed with the stimulating peptide by peptide-stimulated CTL: nonimmunized HLA-A2+ patient 4, E:T 30:1, 4 hour; for lysis of T2-I-100 and T2-I-102 targets by peptide-stimulated lymphocytes: nonimmunized HLA-A2− patient 5
Source text: FIGS. 5A-5E are graphical representations of cytolytic activity of NP, I-100 and I-102-CTL from HLA-A2 immunized patients # 1 and # 6 (FIGS. 5A and 5B, respectively) and from HLA-A2, non-immunized patient # 4 (FIG. 5C) against T2-NP (▪) and T2-I-100 (□) targets. FIG. 5D depicts lytic activity of NP- and I-102-CTL from HLA-A2^− patient #3 against T2-NP (▪) and T2-I-100 (□) targets. FIG. 5E depicts CTL lysis by NP-, I-100-, and I-102-CTL effectors from […] patient #5 against T2-I-100 targets. The E:T ratio was 30:1 in a 4 hour 51Cr release assay; bars, ±S D.
For proliferation assays, PBMCs were cultured in tetra-triplicate in 96-well flat-bottomed microtiter plates (Costar Corp., Cambridge, Mass.) at the concentration of 2×10^5 cells/well in 100 μl of complete RPMI 1640 containing L-glutamine and 10% fetal bovine serum. Peptides I-100 and I-101 were added at 5, 25, and 50 μg/ml in serum-free RPMI 1640 up to a total volume of 200 μl. PBMCs were cultured for 6 days at 37° C. in a 5% CO2 atmosphere before addition of tritiated thymidine at a concentration of 1 μCi/well. Results are expressed as cpm of tritiated thymidine incorporated and as a stimulation index (Hogan et al. J Immunol 1989; 142:2097-104). The latter is the average cpm of lymphocytes cultured with peptide divided by the average cpm of lymphocytes cultured without peptide. […] Peptide-specific T cells were propagated by adding recombinant interleukin (IL)2 (90 IU/ml; Biosource International, Camarillo, Calif.) to PBMCs that had been cultured for 96 h at 37° C. with peptides. After 5 additional days of culture at 37° C. cells were washed, replated, and restimulated at a 1:1 stimulator to responder ratio with irradiated (30 Gy) autologous PBMC stimulators and peptides at concentrations of 5, 25, and 50 μg/ml. IL-2 was added after 96 h, and cells were cultured for an additional 5 days at 37° C., after which they were restimulated for an additional 10 days at 37° C. Lymphocytes stimulated over three cycles were collected and used as effectors in a cytotoxicity (CTL) assay.
(§1) To determine the effects of the immunization with […] on activation of melanoma cell-lytic CTLs, we compared the responses of immunized HLA-A2^+ patients 1 and 6 with that of nonimmunized HLA-A2^+ patient 4. As specificity and restriction control we analyzed the responses of nonimmunized HLA-A2^− patients 3 and 5. All of the CTLs were tested for their ability to lyse T2 cells pulsed with the stimulating peptide and A375sm melanoma cells. Lymphocytes collected after three rounds of peptide stimulation were tested for their ability to lyse ^51Cr-labeled targets as described previously (Fisk, et al. J Exp Med 1998;181:2109-17; Murray, et al. Clin Cancer Res 2002;11:3407-18). […] Cold target inhibition of tumor cell lysis experiments was performed as described (Murray, et al. Clin Cancer Res 2002;11:3407-18).

[4] = test system: A375SM melanoma cells; assay: 51Cr release CTL assay against A375SM melanoma cells; conditions: for lysis of A375SM cells by peptide-stimulated PBMCs: immunized HLA-A2+ patient 1
Protocol: NP-, I-100, and I-102 on the abscissa indicate corresponding CTL effectors. NP-CTL indicates CTL stimulated by T2 cells and IL-2 without addition of peptides. […] The E:T ratio was 20:1 in a 20 h ^51Cr release assay. FIG. 6C depicts the kinetics of A375SM melanoma cell lysis by NP-CTL (∘), I-100-CTL (●), and I-102-CTL (▴). CTL were incubated with target cells for up to 20 h.
as §1
To determine whether in vitro stimulation with peptides generated CTLs that recognized epitopes on HMW-MAA^+/HLA-A2^+ melanoma cells, PBMCs from immunized HLA-A2^+ patients 1 and 6 were stimulated with I-100 and 1-102 peptides and then tested for their ability to lyse A375SM melanoma cells. […] Therefore, these effectors were designated as I-100 CTL and I-102 CTL, respectively.

[5] = patient 8, −/+, 1° STIM up to 6 days
[6] = HLA-A2+ patients 1, 2 and 6 immunized with MELIMMUNE
[7] = HLA-A2− patients 3, 5, 9 and 10 not immunized
[8] = patient 1, HLA-A2 phenotype/immunization +/+, 1° STIM up to 6 days
[9] = patient 2, +/+, 1° STIM up to 6 days
[10] = patient 3, HLA-A2 −, 1° STIM up to 6 days
[11] = patient 4, +/−, 1° STIM up to 6 days
[12] = patient 5, HLA-A2 −, 1° STIM up to 6 days
[13] = patient 6, +/+, 1° STIM up to 6 days
[14] = patient 7, −/+, 1° STIM up to 6 days
[15] = patient 9, −/−, 1° STIM up to 6 days
[16] = patient 10, −/−, 1° STIM up to 6 days
[17] = PBMCs from HLA-A2+ patient 6 and four HLA-A2− patients, preliminary experiments

## E71: inactive HLA-A2 epitope from HER-2/neu protein, HER-2 (828-836) (QIAKGMSYL; UniProt P04626 828-836, looked up, fragment) [Peptide E71, reference compound]
[1]; lymphocytes from HLA-A2+ immunized patients 1, 2 and 6 (NP=353±84 cpm)
  tritiated thymidine incorporated: 411±190 cpm
[1]; [5]
  tritiated thymidine incorporated: 685±103 cpm

## LLVLLYSKL (mouse; mAb MF11-30) [Peptide I-100]
[1]; [6]
  stimulation index: 2.7±0.7
[1]; [7]
  stimulation index: 1.2±0.4
[1]; [8]
  S.I. (stimulation index): (2.5)
  tritiated thymidine incorporated: 1123 ± 240^a cpm
[1]; [9]
  S.I. (stimulation index): (3.3)
[1]; [10]
  S.I. (stimulation index): (1.1)
  tritiated thymidine incorporated: 655 ± 51 cpm
[1]; [11]
  S.I. (stimulation index): (1.5)
[1]; [12]
  S.I. (stimulation index): (1.7)
[1]; [13]
  S.I. (stimulation index): (3.1)
  tritiated thymidine incorporated: 1793 ± 58^a cpm
[1]; [14]
  S.I. (stimulation index): (1.1)
  tritiated thymidine incorporated: 652 ± 77 cpm
[1]; [5]
  S.I. (stimulation index): (0.9)
  tritiated thymidine incorporated: 490 ± 54 cpm
[1]; [15]
  S.I. (stimulation index): (0.7)
  tritiated thymidine incorporated: 334 ± 26 cpm
[1]; [16]
  S.I. (stimulation index): (0.9)
  tritiated thymidine incorporated: 184 ± 12 cpm
[2]
  IL-10 levels after restimulation: 86 ± 11 pg/mL
  IFN-γ levels: similar
[2]; HLA-A2+ patient 6 and HLA-A2− patient 7, after 1° STIM
  IFN-γ and IL-10 levels: low
[2]; HLA-A2+ patients
  IFN-γ:IL-10 ratio: 3.96
[2]; HLA-A2− patients
  IFN-γ:IL-10 ratio: 0.97
[2]; PBMCs from HLA-A2+ patients
  IL-10 after 2° STIM: 155.7 ± 36.3 pg/mL
  average IFN-γ levels after 2° STIM: 616.1 ± 86.3 pg/mL
[2]; PBMCs from HLA-A2− patients
  IL-10 after 2° STIM: 61.1 ± 25 pg/mL
[3]
  lysis of T2-I-100 by peptide-stimulated CTL: to a significantly greater extent than control targets T2-NP
  lysis of T2 cells pulsed with the stimulating peptide by peptide-stimulated CTL: did not lyse T2-I-100
  lysis of T2-I-100 and T2-I-102 targets by peptide-stimulated lymphocytes: unable to specifically lyse
[4]
  lysis of A375SM cells by peptide-stimulated PBMCs: effectively lysed A375SM cells

## LLQLYSGRL (human; HMW-MAA) [Peptide I-101]
[1]; [17]
  stimulation of proliferation: did not stimulate
[2]; [17]
  stimulation of IFN-γ and IL-10 secretion: did not stimulate

## LLQLGYSGRL (designed peptide) [Peptide I-102]
[1]; [6]
  stimulation index: 2.7±0.7
[1]; [7]
  stimulation index: 1.2±0.4
[1]; [8]
  S.I. (stimulation index): (3.3)
  tritiated thymidine incorporated: 1519 ± 92^a cpm
[1]; [9]
  S.I. (stimulation index): (3.0)
[1]; [10]
  S.I. (stimulation index): (1.4)
[1]; [11]
  S.I. (stimulation index): (1.7)
[1]; [12]
  S.I. (stimulation index): (2.0)
[1]; [13]
  S.I. (stimulation index): (2.8)
  tritiated thymidine incorporated: 1464 ± 53^a cpm
[1]; [14]
  S.I. (stimulation index): (1.2)
  tritiated thymidine incorporated: 755 ± 56 cpm
[1]; [5]
  S.I. (stimulation index): (1.2)
  tritiated thymidine incorporated: 650 ± 31 cpm
[1]; [15]
  S.I. (stimulation index): (0.9)
  tritiated thymidine incorporated: 425 ± 40 cpm
[1]; [16]
  S.I. (stimulation index): (1.0
  tritiated thymidine incorporated: 200 ± 20 cpm
[2]
  IL-10 levels after restimulation: 212 ± 24 pg/mL
  IFN-γ levels: similar
[2]; HLA-A2+ patients
  IFN-γ:IL-10 ratio: 3.96
[2]; HLA-A2− patients
  IFN-γ:IL-10 ratio: 0.97
[2]; PBMCs from HLA-A2+ patients
  IL-10 after 2° STIM: 155.7 ± 36.3 pg/mL
  average IFN-γ levels after 2° STIM: 616.1 ± 86.3 pg/mL
[2]; PBMCs from HLA-A2− patients
  IL-10 after 2° STIM: 61.1 ± 25 pg/mL
[3]
  lysis of T2-I-100 by peptide-stimulated CTL: to a significantly greater extent than control targets T2-NP
  lysis of T2 cells pulsed with the stimulating peptide by peptide-stimulated CTL: lysed T2-I-102
  lysis of T2-I-100 and T2-I-102 targets by peptide-stimulated lymphocytes: unable to specifically lyse
[3]; nonimmunized HLA-A2− patient 3, compared with T2-NP
  lysis of T2-I-102 targets by peptide-stimulated CTL: no specific lysis
[4]
  lysis of A375SM cells by peptide-stimulated PBMCs: effectively lysed A375SM cells
[4]; peptide-stimulated CTL, kinetics of lysis
  increase of lysis of A375SM cells from 5 h to 20 h: 59%
